From paper PMC10525445, “Antitrypanosomal Activity of 1,2,3-Triazole-Based Hybrids Evaluated Using In Vitro Preclinical Translational Models” (Biology, 2023) come the findings set out here.

Data set [1] can be described thus: Cardiotoxic effect on 2D primary heart muscle cell culture. The class given is cell-based, Swiss Webster mice. The note with it: Swiss Webster, mouse, primary fetal heart muscle cells, 2D monolayer culture, heart muscle cell monolayers, up to 500 µM, read-out: Toxicity 2D Culture (CC50). As to the method:
(§1) Primary heart muscle cell cultures were obtained from fetuses of female Swiss Webster mice, as previously described. After heart removal and ventricle fragmentation, tissue fragments were dissociated in a trypsin and collagenase type II (Worthington Biochemical Corporation, Lakewood, USA) dissociation solution. For two-dimensional (2D) cultures, the isolated cardiac cells were seeded at a density of 5 × 10^4 cells/well in gelatin (0.1%)-coated 96-well white culture plates. Three-dimensional (3D) cardiac spheroids were obtained after seeding isolated heart muscle cells at a density of 2.5 × 10^4 cells/well in an agarose (1%)-coated 96-well U-bottom plate, as described in [35]. Heart muscle cells cultures were cultivated in Dulbecco’s modified Eagle medium (DMEM) supplemented with 7% FBS, 2.5 mM CaCl2, 2% embryo extract, and 1 mM L-glutamin and maintained at 37 °C in a humidified atmosphere of 5% CO2. All procedures with animals were approved by the Animal Care and Use Committee at the Oswaldo Cruz Institute (license L-017/2022).
(§2) The toxic effect of the triazole series was evaluated on VERO cell monolayers. After seeding for 24 hours, VERO cells were treated for 72 h at 37 °C with the 1,2,3-triazole derivatives and Bz, the reference drug, with a range of concentration from 15.62 to 500 µM. Controls were performed with a non-toxic concentration of dimethyl sulfoxide (DMSO; ≤0.1%) used in the experimental assays. Cell viability was determined by measuring ATP level using a CellTiter Glo kit. The luminescence read was performed using a Glomax microplate reader (Promega Corporation, Madison, WI, EUA). The cytotoxicity concentration 50 (CC50), the drug concentration that reduces cell viability by 50%, was calculated using linear regression. […] Cultures were exposed for 72 h to compound concentrations up to 500 µM, following the protocol mentioned above. At least 3 independent assays were performed in duplicate.

Data set [2] is described as follows: Cardiotoxic effect on 3D cardiac spheroids. The class given is cell-based, Swiss Webster mice. As to conditions: Swiss Webster, mouse, 3D cardiac spheroids of primary fetal heart muscle cells, 3D cardiac microtissue, up to 500 µM, read-out: Toxicity 3D Culture (CC50). On the procedure:
as §1, §2

Data set [3] is described as follows: Cytotoxicity on VERO cell monolayers (CellTiter Glo, 72 h). The note with it: African green monkey, VERO cell monolayers, ATP level, read-out: Cytotoxicity VERO Cells CC50. The class given is cell-based. On the procedure: as §2, with “VERO cells (Rio de Janeiro Cell Bank code 0245) were cultivated in RPMI 1640 medium supplemented with 10% fetal bovine serum (FBS) at 37 °C in a humidified atmosphere of 5% CO2. Confluent monolayers were dissociated with trypsin-EDTA solution (0.025%), and isolated cells were seeded on culture plates or flasks, depending on the experimental assay. The VERO cell cultures were used in cytotoxicity and phenotypic screening assays and for obtaining culture-derived trypomastigotes. The toxic” for “The toxic”
For orientation: In ATP-based viability assays light output follows the ATP content of the culture.

Data set [4] concerns heart muscle cells (2D culture). In words: Cardiotoxic effect on 2D primary heart muscle cell culture. The class given is cell-based, Swiss Webster mice. As to conditions: heart muscle cell monolayers, 72 h, up to 500 µM; read-out: Toxicity 2D Culture (CC50). As to the method:
as §1, §2

The test system of data set [5] is 3D cardiac microtissue (heart muscle cells). In words: Cardiotoxic effect on 3D cardiac spheroids. The class given is cell-based, Swiss Webster mice. The note with it: 72 h, up to 500 µM, read-out: Toxicity 3D Culture (CC50). On the procedure: as §1, §2
A further data set has as its system VERO cells. In words: Cytotoxicity on VERO cell monolayers (CellTiter Glo, 72 h). The class given is cell-based. The note with it: ATP level. On the procedure:
as §2, with “VERO cells (Rio de Janeiro Cell Bank code 0245) were cultivated in RPMI 1640 medium supplemented with 10% fetal bovine serum (FBS) at 37 °C in a humidified atmosphere of 5% CO2. Confluent monolayers were dissociated with trypsin-EDTA solution (0.025%), and isolated cells were seeded on culture plates or flasks, depending on the experimental assay. The VERO cell cultures were used in cytotoxicity and phenotypic screening assays and for obtaining culture-derived trypomastigotes. The toxic” for “The toxic”

`c1ccc(-c2cn(-c3ccccc3)nn2)cc1` [Triazole 1g, 1-(4-Diphenyl)-1H-1,2,3-triazole]: the CC50 at 72 h in data set [1], in data set [2] and in data set [3] was over 500 µM each time.
On to “4-Phenyl-1-(m-tolyl)-1H-1,2,3-triazole [Triazole 1f]”, for which the half-maximal cytotoxic concentration (CC50) is 111 ± 10.1 µM in data set [4], over 500 µM in data set [5] and 86.8 ± 2.73 µM in the data set on VERO cells.
For `COc1ccc(-n2cc(-c3ccccc3)nn2)cc1` [Triazole 1d, 1-(4-Methoxyphenyl)-4-phenyl-1H-1,2,3-triazole], the CC50 at 72 h in data set [1], in data set [2] and in data set [3] was over 500 µM each time.

A word on the CC50: it is the concentration that lowers cell viability or growth by half.
